Patent US8580793B2, “Use of kinase inhibitor for the treatment of thymoma” (Nerviano Medical Services S.r.l., priority 2009, dated 2013)

Tested on: thymic carcinoma
Test: Phase I clinical trial, objective tumor response in thymic carcinoma patients (RECIST)
Type: in vivo, human
Details: 150 mg daily; for decrease in the sum of target lesions compared to baseline: patient; for tumor response as per RECIST criteria: thymic carcinoma patient, 4 days on/3 days off for 3 weeks in 4-week cycle
Excerpt: An objective tumor response was obtained in a patient, first diagnosed with thymic carcinoma in May 2002 and having had their third progression of disease with metastases to lung in July 2007, entered the phase I clinical trial in September 2007. […] The patient, prior to be treated in the clinical trial, received other treatments for their thymic carcinoma, as follows: from January 2005 to June 2005: Adriamycin®, Cytoxan®, Cisplatin; from February 2006 to May 2006: Ifosfamide; from October 2006 to June 2007: Taxol®, Carboplatin; from June 2007 to July 2007: Adriamycin®, Cytoxan®, Vincristine. The patient had also surgery in May 2002 and radiotherapy in July 2002 and July 2006.
Another objective tumor response was obtained in a patient, first diagnosed with thymic carcinoma in May 2006, becoming metastatic to lung, bones and peritoneum in October 2007. The patient started treatment in the phase I clinical trial in December 2008. […] The patient, prior to be treated in the clinical trial, received one line of chemotherapy (cisplatin/gemcitabine) from November 2007 to March 2008; they had surgery in May 2006 and radiotherapy in September 2006.

Structure (SMILES): CNC(=O)c1nn(C)c2c1C(C)(C)Cc1cnc(Nc3ccc(N4CCN(C)CC4)cc3)nc1-2 [compound of formula (I), 8-[4-(4-methyl-piperazin-1-yl)-phenylamino]-1,4,4-trimethyl-4,5-dihydro-1H-pyrazolo[4,3-h]quinazoline-3-carboxylic acid methylamide]
- decrease in the sum of target lesions compared to baseline (PR confirmed one month later): 40%
- decrease in the sum of target lesions compared to baseline (after 6 cycles): 30%
- decrease in the sum of target lesions compared to baseline (after 10 cycles): 31.2%
- decrease in the sum of target lesions compared to baseline (documented until cycle 13): 37.6%
- tumor response as per RECIST criteria (after 6 cycles): partial tumor response (PR)
- tumor response as per RECIST criteria (after 10 cycles): partial tumor response (PR)
